# Source: patent US5336673A, “3-substituted cephem compounds” (priority 1990, dated 1994)
# What was measured:
# Klebsiella oxytoca 1082E = assay: Antibacterial activity, MIC by Agar dilution method, standard test strain 17; type: cell-based; details: 10^7 CFU/ml, 37° C., 18 hours
# Procedure: (§1) The antibacterial activity was determined by an Agar dilution method as described below.
# (§2) That is, the two-fold serial dilutions of the antibacterial compounds (1000 μg compound/ml) were prepared and dispersed in Muller Hinton Agar in a petri dish to a concentration of 100~0.002 μg/ml. The culture broths of standard test strains were inoculated on the medium to a concentration 10^7 CFU/ml, and incubated at 37° C. for 18 hours. The concentration of compounds(I) at which the strains were not grown was regarded as minimum inhibition concentration (MIC).
# (§3) The results of antibacterial activity test of the representative examples of the compound (I) against 20 standard test strains shown in terms of MIC were indicated in Table 1.
# Escherichia coli DC 2 = assay: Antibacterial activity, MIC by Agar dilution method, standard test strain 9; type: cell-based; details: Escherichia coli, DC2, 18 h
# Procedure: as §1, §2, §3
# Staphyloccus aureus 285 = assay: Antibacterial activity, MIC by Agar dilution method, standard test strain 5; type: cell-based; details: 10^7 CFU/ml, 37° C., 18 hours
# Procedure: as §1, §2, §3
# 5. Staphyloccus aureus 285
# [1] = system: β-lactamase producing strains such as Pseudomonas aeruginosa and Enterobacter cloacae; assay: Antibacterial activity against β-lactamase producing strains (summary in words); type: cell-based
# Procedure: as §1, §2
# Escherichia coli O 55 = assay: Antibacterial activity, MIC by Agar dilution method, standard test strain 7; type: cell-based; details: Escherichia coli, O55, 18 h
# Procedure: as §1, §2, §3
# [2] = system: Pseudomonas aeruginosa 1592E; assay: Antibacterial activity, MIC by Agar dilution method, standard test strain 13; type: cell-based; details: 10^7 CFU/ml, 37° C., 18 hours
# Procedure: as §1, §2, §3
# 13. Pseudomonas aeruginosa 1592E
# Acute toxcity test = details: in vivo, male ICR-mouse, after 1 week
# Procedure: Further, in order to illustrate the usefulness of the compounds (I) as a drug, compounds of Examples 12, 18 and 36 were tested for acute toxcity by using 4 weeks-old male ICR-mouse as a test animal.
# the compounds were dissolved in physiological saline and phosphate buffered solution (pH 7.0), or if they were […], suspended in carboxymethylcellulose or gum Arabic and then mixed with phosphate buffered solution.
# The solution or mixture was administered to the tested animals intravenously or subcutaneously and, after 1 week, the number of surviving animals was calculated.
# Salmonella typhimurium = assay: Antibacterial activity, MIC by Agar dilution method, standard test strain 16; type: cell-based; details: Salmonella enterica, 10^7 CFU/ml, 37° C., 18 hours
# Procedure: as §1, §2, §3
# 16. Salmonella typhimurium
# Escherichia coli 1507E = assay: Antibacterial activity, MIC by Agar dilution method, standard test strain 11; type: cell-based; details: Escherichia coli, 1507E, 18 h
# Procedure: as §1, §2, §3
# [3] = system: Pseudomonas aeruginosa 1771; assay: Antibacterial activity, MIC by Agar dilution method, standard test strain 14; type: cell-based; details: 10^7 CFU/ml, 37° C., 18 hours
# Procedure: as §1, §2, §3
# 14. Pseudomonas aeruginosa 1771
# [4] = system: Streptococcus pyogenes A 77; assay: Antibacterial activity, MIC by Agar dilution method, standard test strain 2; type: cell-based; details: A77, 10^7 CFU/ml, 37° C., 18 hours
# Procedure: as §1, §2, §3
# 2. Streptococcus pyogenes A 77
# [5] = target: T1, β-lactamase from Citrobacter freundii (Citrobacter freundii, UniProt P05193); assay: Stability against β-lactamase, relative hydrolysis; type: biochemical; details: Citrobacter freundii enzyme; 100 μM; relative(percentage), Cephaloridine taken as 100; OD at 260 nm
# T1 construct: directly isolated from Enterobacter cloacae P99, E. coli TEM and Citrobacter freundii; endogenous in cells
# T1 sequence (P05193 21-381): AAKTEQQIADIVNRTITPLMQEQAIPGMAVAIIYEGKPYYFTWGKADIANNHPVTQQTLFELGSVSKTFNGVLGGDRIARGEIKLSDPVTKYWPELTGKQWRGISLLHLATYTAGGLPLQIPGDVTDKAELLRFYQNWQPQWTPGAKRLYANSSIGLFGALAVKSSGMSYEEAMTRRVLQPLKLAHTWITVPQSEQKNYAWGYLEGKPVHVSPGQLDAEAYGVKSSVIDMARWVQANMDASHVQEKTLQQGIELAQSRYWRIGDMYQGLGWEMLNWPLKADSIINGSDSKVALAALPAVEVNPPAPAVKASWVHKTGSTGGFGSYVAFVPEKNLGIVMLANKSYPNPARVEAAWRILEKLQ
# Procedure: (§4) In order to establish the usefulness in clinical applications of the compounds provided by the invention, the compound of Example 18 was tested for stability against the β-lactamase and for antibacterial activity on systemic infection model.
# (§5) First, the stability against the β-lactamase was tested by determining the relative(percentage) hydrolysis of the compound of Example 18, relative to that of Cephaloridine, taking the absolute rate of Cephaloridine as 100.
# (§6) The β-lactamases employed in the test were directly isolated from Enterobacter cloacae P99, E. coli TEM and Citrobacter freundii, and the antibiotics for comparison were Cephaloridine, Cephradine, Cefoperazone and Cefotaxime.
# (§7) Cephaloridine, other known antibiotics and the compound of Example 18 were reacted with each of the enzymes isolated from the strains and the OD were determined at 260 nm, λmax of Cephaloridine. The relative hydrolysis of various compounds were calculated relative to the OD of Cephaloridine.
# [6] = target: T2, β-lactamase from E. coli TEM (Escherichia coli, UniProt P62593); assay: Stability against β-lactamase, relative hydrolysis; type: biochemical; details: E. coli TEM enzyme; 100 μM; relative(percentage), Cephaloridine taken as 100; OD at 260 nm
# T2 construct: directly isolated from Enterobacter cloacae P99, E. coli TEM and Citrobacter freundii; endogenous in cells; host or cells: E. coli TEM (plasmid-carried enzyme of the strain)
# T2 sequence (P62593 24-286 limits assumed): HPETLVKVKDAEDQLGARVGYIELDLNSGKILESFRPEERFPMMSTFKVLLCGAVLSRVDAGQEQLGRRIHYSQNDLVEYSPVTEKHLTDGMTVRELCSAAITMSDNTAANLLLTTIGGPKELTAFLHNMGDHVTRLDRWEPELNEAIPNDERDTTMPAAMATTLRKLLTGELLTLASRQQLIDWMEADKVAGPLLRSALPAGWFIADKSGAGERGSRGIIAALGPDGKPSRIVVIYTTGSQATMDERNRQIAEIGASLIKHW
# Procedure: as §4, §5, §6, §7
# Escherichia coli DC O = assay: Antibacterial activity, MIC by Agar dilution method, standard test strain 8; type: cell-based; details: Escherichia coli, 18 h
# Procedure: as §1, §2, §3
# Escherichia coli TEM = assay: Antibacterial activity, MIC by Agar dilution method, standard test strain 10; type: cell-based; details: Escherichia coli TEM; 10^7 CFU/ml, 37° C., 18 hours; read-out: MIC
# Procedure: as §1, §2, §3
# [7] = system: Streptococcus pyogenes A 308; assay: Antibacterial activity, MIC by Agar dilution method, standard test strain 1; type: cell-based; details: A308, 10^7 CFU/ml, 37° C., 18 hours
# Procedure: as §1, §2, §3
# 1. Streptococcus pyogenes A 308
# [8] = system: Staphylococcus aureus SG 511; assay: Antibacterial activity, MIC by Agar dilution method, standard test strain 4; type: cell-based; details: SG511, 10^7 CFU/ml, 37° C., 18 hours
# Procedure: as §1, §2, §3
# 4. Staphylococcus aureus SG 511
structure (smiles),measurement,setting,value
"CON=C(C(=O)NC1C(=O)N2C(C(=O)[O-])=C(C[n+]3nn(N)c4ccccc43)CSC12)c1csc(N)n1 [Example 18, (6R,7R)-7-[(Z)-2-(2-aminothiazol-4-yl)-2-methoxyiminoacetamido]-3-[(1-aminobenzotriazol-3-ium)methyl]-ceph-3-em-4-carboxylate]",MIC,Klebsiella oxytoca 1082E,0.049 µg/mL
same,MIC,Escherichia coli DC 2,0.025 µg/mL
same,MIC,Staphyloccus aureus 285,0.781 µg/mL
same,antibacterial activity (in words),[1],superior activity
same,MIC,Escherichia coli O 55,7 ng/mL
same,MIC,[2],1.56 µg/mL
same,LD50 at 168 h,"Acute toxcity test; sc, Subcutaneous administration",> 6000 mg/kg
same,LD50 at 168 h,Acute toxcity test; Intravenous administration,> 4000 mg/kg
same,MIC,Salmonella typhimurium,0.195 µg/mL
same,MIC,Escherichia coli 1507E,0.025 µg/mL
same,MIC,[3],1.56 µg/mL
same,MIC,[4],4 ng/mL
same,Relative hydrolysis by β-lactamase,[5],0.2
same,Relative hydrolysis by β-lactamase,[6],0.0
same,MIC,Escherichia coli DC O,0.025 µg/mL
same,MIC,Escherichia coli TEM,0.013 µg/mL
same,MIC,[7],4 ng/mL
same,MIC,[8],0.391 µg/mL
